Patent US20220227796A1, “EGFR INHIBITORS, COMPOSITIONS AND METHODS THERE OF” (Betta Pharmaceuticals Co., Ltd., priority 2019, published 2022)
Like-named read-outs stand apart in the source and are kept apart here.

Columns and labels:
[1] = target: EGFR Δ19del/T790M/C797S (Homo sapiens, UniProt P00533, T790M/C797S, form not given); assay: Kinase assay (mobility shift) for EGFR Δ19del/T790M/C797S; type: biochemical; conditions: read-out: EGFR Δ 19del/T790M/C797S IC50
Protocol: (§1) Enzyme reaction protocol are as followed:
(§2) 1. Preparing 1* Kinase buffer as followed.
(§3) 2. Preparing Compound Concentration Gradient: Compounds were tested at a concentration of 300 nM, diluted to 100-fold final concentration in 100% DMSO solution in 96-well plates, and compounds were diluted 3 times with Precision, 10 concentrations. Each concentration of the compound was then further diluted to a 5-fold final concentration of the intermediate dilution solution using 1* Kinase buffer.
(§4) 3. 5 μL of each of the prepared intermediate dilution compounds was separately added to the compound wells of the 384-well plate, and each concentration was tested for duplicate wells; 5 μL of 5% DMSO was added to the negative control wells and the positive control wells, respectively.
(§5) 4. 2.5-fold final concentration of the kinase solution was prepared using 1*Kinase buffer.
(§6) 6. Centrifuge at 1000 rpm for 30 seconds, shake the reaction plate and incubate for 10 minutes at room temperature.
(§7) 8. 10 μL of a 2.5-fold final concentration of a mixed solution of ATP and a substrate was added to initiate the reaction.
(§8) 9. Centrifuge the 384-well plate at 1000 rpm for 30 seconds, mix by shaking, and incubate at room temperature for the corresponding time.
(§9) 10. Add 30 μL of the stop solution to stop the kinase reaction, centrifuge at 1000 rpm for 30 seconds, and mix by shaking.
(§10) 11. Read the conversion rate with Caliper EZ Reader.
(§11) Convert conversion values to inhibition values:
(§12) Percent inhibition=(max−conversion % sample)/(max−min)*100.
(§13) “max” stands for the mean value of the positive control well ratio; “min” stands for the mean value of the negative control well; conversion % sample: sample conversion reading.
(§14) Fit the data in log(inhibitor) vs. response Variable slope of GraphPad Prism 5 to obtain IC50 values.
(§15) Equation used is: Y=Bottom+(Top−Bottom)/(1+(IC50/X)*HillSlope)

[2] = target: EGFR L858R (Homo sapiens, UniProt P00533, L858R); assay: Kinase assay (mobility shift) for EGFR L858R; type: biochemical
Protocol: as §1, §2, §3, §4, §5, §6, §7, §8, §9, §10, §11, §12, §13, §14, §15

[3] = target: EGFR T790M/L858R (Homo sapiens, UniProt P00533, L858R/T790M); assay: Kinase assay (mobility shift) for EGFR T790M/L858R; type: biochemical
Chain of EGFR T790M/L858R (P00533 25-1210 T790M/L858R): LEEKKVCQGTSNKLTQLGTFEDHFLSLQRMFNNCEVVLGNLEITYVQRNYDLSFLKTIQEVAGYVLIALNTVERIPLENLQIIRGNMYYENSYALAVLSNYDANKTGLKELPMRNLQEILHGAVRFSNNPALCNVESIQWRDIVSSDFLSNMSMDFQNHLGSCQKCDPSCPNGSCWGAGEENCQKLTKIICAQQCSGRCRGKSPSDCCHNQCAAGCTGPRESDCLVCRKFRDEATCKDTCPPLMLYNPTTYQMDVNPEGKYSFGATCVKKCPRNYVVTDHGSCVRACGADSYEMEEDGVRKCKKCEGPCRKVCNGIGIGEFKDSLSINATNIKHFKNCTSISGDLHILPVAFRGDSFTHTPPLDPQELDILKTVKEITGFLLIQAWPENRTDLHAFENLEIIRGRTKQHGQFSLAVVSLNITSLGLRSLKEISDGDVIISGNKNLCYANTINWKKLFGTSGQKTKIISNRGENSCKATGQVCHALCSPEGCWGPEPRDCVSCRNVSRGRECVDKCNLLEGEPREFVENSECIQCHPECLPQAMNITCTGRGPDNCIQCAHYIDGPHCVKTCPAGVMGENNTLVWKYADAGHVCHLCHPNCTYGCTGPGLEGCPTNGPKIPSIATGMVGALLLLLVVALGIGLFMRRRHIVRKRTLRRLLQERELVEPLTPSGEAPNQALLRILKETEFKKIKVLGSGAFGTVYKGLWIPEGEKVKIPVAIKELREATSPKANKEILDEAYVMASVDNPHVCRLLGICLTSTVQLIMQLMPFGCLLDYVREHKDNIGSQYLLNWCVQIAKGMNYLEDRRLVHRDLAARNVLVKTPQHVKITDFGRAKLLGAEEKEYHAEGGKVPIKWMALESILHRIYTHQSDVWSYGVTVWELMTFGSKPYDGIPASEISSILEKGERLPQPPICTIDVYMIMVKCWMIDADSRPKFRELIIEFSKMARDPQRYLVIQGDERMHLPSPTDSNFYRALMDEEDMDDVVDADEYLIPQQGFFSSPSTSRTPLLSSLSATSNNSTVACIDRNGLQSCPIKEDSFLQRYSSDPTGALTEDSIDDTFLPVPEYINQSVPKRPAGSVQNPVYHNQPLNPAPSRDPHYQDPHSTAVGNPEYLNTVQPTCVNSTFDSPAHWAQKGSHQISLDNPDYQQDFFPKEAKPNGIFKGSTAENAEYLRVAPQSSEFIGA
Protocol: as §1, §2, §3, §4, §5, §6, §7, §8, §9, §10, §11, §12, §13, §14, §15

[4] = target: T1, Ba/F3-L858R/T790M/C797S (Homo sapiens, UniProt P00533, T790M/C797S/L858R, cells depend on it); assay: Ba/F3-L858R/T790M/C797S cells proliferation assay; type: cell-based; conditions: cell proliferation, 72 h, CellTiter Glo, read-out: BaF3 L858R/T790M/C797S IC50
T1 construct: BaF3 L858R/T790M/C797S IC50; other: cell proliferation, 72 h, CellTiter Glo; class symbols; numeric values
Protocol: (§16) a) The medium was preheated in a 37 water bath in advance.
(§17) b) Remove the cryogenic vials from the liquid nitrogen tank, quickly put it into a 37° C. water bath, and completely melt it in 1 min.
(§18) c) Transfer the cell suspension to a 15 mL centrifuge tube containing 8 mL medium, centrifuge 1000 rpm, 5 min,
(§19) d) Discard the supernatant, resuspend the cells in 1 mL medium, and transfer to a 75 cm^2 flask containing 15 mL medium, culture the cells in an incubator at 37° C., 5% CO2.
(§20) a) The medium was preheated in a 37° C.; water bath in advance.
(§21) b) Collect cell to a 15 mL centrifuged tube, centrifuge at 1000 rpm for 5 min. Discard the supernatant, count, and make the cell density at 1×10^4 cells/mL, then place it in a 37° C., 5% CO2 incubator.
(§22) b) The above compound solution was diluted 1:20 times with culture medium to prepare a 10 fold working solution;
(§23) a) Take cells in log phase growth, centrifuge at 1000 rpm for 5 min, then resuspend the cells with culture medium, then count cells;
(§24) b) Cells were seeded to 96-well cell culture plate with density at 2000 cells/well;
(§25) The blank control well was a culture medium (0.5% DMSO);
(§26) b) The cells were incubated for an additional 72 h in the incubator.
(§27) a) Remove the 96-well cell culture plate and add 50 μl of CTG reagent (CellTiter Glo kit, promega, Cat #G7573).
(§28) b) Plate was shaked for 2 min and then let it cool for 10 min at room temperature.
(§29) c) The Luminescence signal value was read using a PerkinElmer reader.
(§30) Experimental Data Analysis
(§31) Data were analyzed using GraphPad Prism 6.0 software to obtain a fitted curve of compound activity.
(§32) Y=Bottom+(Top−Bottom)/(1+10^((Log IC50−X)*Hill Slope));
(§33) The cells proliferation assay results are expressed with IC50, shown as Table 2.

[5] = target: Ba/F3-Δ19del/T790M/C797S (Homo sapiens, UniProt P00533, T790M/C797S, cells depend on it, form not given); assay: Ba/F3-Δ19del/T790M/C797S cells proliferation assay; type: cell-based; conditions: cell proliferation, 72 h, CellTiter Glo, read-out: BaF3 Δ 19del/T790M/C797S IC50
Chain of Ba/F3-Δ19del/T790M/C797S (P00533 with tags, fused parts or gaps DEL746-750/T790M/C797S, form open): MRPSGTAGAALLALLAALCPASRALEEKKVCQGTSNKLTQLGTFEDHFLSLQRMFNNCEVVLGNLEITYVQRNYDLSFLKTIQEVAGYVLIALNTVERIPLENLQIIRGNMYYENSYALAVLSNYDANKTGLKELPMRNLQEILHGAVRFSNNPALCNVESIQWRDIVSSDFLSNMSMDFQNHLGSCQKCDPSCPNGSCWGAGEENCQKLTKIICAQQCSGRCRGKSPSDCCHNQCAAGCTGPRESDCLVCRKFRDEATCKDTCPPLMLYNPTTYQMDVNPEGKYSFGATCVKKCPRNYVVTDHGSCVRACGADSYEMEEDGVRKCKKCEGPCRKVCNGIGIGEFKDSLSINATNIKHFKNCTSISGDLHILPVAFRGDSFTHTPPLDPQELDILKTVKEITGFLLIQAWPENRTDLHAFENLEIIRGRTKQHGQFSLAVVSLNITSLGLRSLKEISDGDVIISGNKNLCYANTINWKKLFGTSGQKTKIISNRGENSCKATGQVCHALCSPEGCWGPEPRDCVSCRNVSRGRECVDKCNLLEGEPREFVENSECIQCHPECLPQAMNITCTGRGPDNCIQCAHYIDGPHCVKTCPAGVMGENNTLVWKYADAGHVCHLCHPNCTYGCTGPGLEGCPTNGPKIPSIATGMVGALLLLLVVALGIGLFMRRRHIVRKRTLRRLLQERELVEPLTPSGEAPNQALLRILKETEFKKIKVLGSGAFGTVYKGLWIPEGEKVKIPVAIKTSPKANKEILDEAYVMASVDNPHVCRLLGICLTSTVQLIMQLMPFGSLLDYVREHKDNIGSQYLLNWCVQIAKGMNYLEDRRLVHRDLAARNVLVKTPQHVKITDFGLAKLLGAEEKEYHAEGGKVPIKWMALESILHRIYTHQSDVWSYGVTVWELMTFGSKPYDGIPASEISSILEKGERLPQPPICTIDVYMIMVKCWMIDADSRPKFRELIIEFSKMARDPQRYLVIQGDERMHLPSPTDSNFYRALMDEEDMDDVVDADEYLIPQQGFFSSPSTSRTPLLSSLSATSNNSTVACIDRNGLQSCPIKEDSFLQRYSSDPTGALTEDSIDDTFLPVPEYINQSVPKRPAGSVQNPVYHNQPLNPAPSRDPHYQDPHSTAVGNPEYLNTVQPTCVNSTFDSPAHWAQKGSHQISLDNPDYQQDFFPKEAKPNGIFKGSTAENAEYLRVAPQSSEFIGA
Protocol: as §16, §17, §18, §19, §20, §21, §22, §23, §24, §25, §26, §27, §28, §29, §30, §31, §32, §33

[6] = tested on: H1975(L858R/T790M); assay: H1975 cells proliferation assay; type: cell-based; conditions: for IC50: Homo sapiens, NCI-H1975, cell proliferation, 72 h, CellTiter Glo, read-out: H1975 IC50; for inhibition of double mutant (L858R/T790M): summary in words of Table 2
Outline: (§34)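 HCC827 (2500 cells/well) and H1975 (2000 cells/well) cells seeded in 96-well plates and exposed to compounds for 72 h at 37° C, 5% CO2; 0.5% DMSO medium as blank. Viability by CellTiter-Glo luminescence; IC50 from four-parameter logistic fit.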

[7] = tested on: HCC827(Δ19del); assay: HCC827 cells proliferation assay; type: cell-based; conditions: Homo sapiens, HCC827, cell proliferation, 72 h, CellTiter Glo, read-out: HCC827 IC50
Outline: as §34

[8] = target: T2, Ba/F3-L858R/T790M/C797S (Homo sapiens, UniProt P00533, T790M/C797S, cells depend on it, form not given); assay: Ba/F3-L858R/T790M/C797S cells proliferation assay; type: cell-based; conditions: summary in words of Table 2; covers both Ba/F3 triple mutant lines
T2 construct: covers both
T2 sequence (P00533 whole entry T790M/C797S/L858R, form open): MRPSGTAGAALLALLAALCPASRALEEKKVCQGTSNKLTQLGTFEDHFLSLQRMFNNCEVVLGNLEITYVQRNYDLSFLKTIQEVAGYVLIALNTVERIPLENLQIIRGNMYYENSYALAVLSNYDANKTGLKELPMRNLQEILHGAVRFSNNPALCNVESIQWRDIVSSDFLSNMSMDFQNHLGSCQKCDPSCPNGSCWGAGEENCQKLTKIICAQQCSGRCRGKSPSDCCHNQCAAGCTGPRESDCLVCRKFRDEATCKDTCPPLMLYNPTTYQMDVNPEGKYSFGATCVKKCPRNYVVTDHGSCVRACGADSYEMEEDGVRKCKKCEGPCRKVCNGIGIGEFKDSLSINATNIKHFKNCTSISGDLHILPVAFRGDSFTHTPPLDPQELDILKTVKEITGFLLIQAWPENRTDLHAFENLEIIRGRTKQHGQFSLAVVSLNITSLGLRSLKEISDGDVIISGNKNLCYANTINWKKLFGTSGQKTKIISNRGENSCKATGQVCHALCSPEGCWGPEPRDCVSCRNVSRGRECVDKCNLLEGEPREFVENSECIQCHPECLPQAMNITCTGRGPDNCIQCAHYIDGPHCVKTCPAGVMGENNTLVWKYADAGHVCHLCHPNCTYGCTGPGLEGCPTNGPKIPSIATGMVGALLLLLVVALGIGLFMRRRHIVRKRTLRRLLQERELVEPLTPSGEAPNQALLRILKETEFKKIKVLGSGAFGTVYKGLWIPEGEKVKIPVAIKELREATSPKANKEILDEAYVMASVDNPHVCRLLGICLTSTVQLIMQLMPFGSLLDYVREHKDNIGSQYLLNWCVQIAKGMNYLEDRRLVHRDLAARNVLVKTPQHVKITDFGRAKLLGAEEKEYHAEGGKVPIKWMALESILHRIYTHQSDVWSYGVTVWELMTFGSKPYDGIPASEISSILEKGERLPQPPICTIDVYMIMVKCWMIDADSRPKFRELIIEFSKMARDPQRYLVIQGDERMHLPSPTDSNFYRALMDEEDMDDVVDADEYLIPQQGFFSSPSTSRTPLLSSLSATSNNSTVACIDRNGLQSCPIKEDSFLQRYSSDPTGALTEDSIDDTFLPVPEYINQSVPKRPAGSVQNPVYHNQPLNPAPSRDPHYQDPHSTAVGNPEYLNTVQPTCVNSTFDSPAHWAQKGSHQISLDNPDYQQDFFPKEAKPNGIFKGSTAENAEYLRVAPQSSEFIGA
Protocol: as §16, §17, §18, §19, §20, §21, §22, §23, §24, §25, §26, §27, §28, §29, §30, §31, §32, §33

Chain of EGFR Δ19del/T790M/C797S (P00533 with tags, fused parts or gaps DEL746-750/T790M/C797S, form open): as the sequence (P00533 with tags, fused parts or gaps DEL746-750/T790M/C797S, form open) above

IC50 [1]	IC50 [2]	IC50 [3]	GI50 ([4]; class symbols)	GI50 ([5]; class symbols)	IC50 ([6]; class symbols)	IC50 ([7]; class symbols)	inhibition of triple mutant (L858R/T790M/C797S or Δ19del/T790M/C797S) [8]	GI50 ([4]; numeric values)	GI50 ([5]; numeric values)	IC50 ([6]; numeric values)	IC50 ([7]; numeric values)	Structure (SMILES)	inhibition of double mutant (L858R/T790M) [6]
< 0.01 µM	< 0.01 µM	< 0.01 µM	0.01 to 0.05 µM	0.01 to 0.05 µM	< 0.01 µM	0.01 to 0.05 µM	–	–	–	–	–	C=CC(=O)Nc1cc(Nc2ncc(Cl)c(Nc3ccccc3P(C)(C)=O)n2)ccc1N1CCC(N2CCN(C)CC2)CC1 [Compound 16, N-(5-((5-chloro-4-((2-(dimethylphosphoryl)phenyl)amino)pyrimidin-2-yl)amino)-2-(4-(4-methylpiperazin-1-yl)piperidin-1-yl)phenyl)acrylamide]	–
–	–	–	–	–	–	–	higher inhibition	0.0168 µM	0.0096 µM	0.0714 µM	–	COc1cc(N2CCC(N3CCN(C)CC3)CC2)c(C)cc1Nc1ncc(Br)c(Nc2ccc3nccnc3c2P(C)(C)=O)n1 [Comparative compound C, (6-((5-bromo-2-((2-methoxy-5-methyl-4-(4-(4-methylpiperazin-1-yl)piperidin-1-yl)phenyl)amino)pyrimidin-4-yl)amino)quinoxalin-5-yl)dimethylphosphine oxide, reference compound]	relatively low inhibition
–	–	–	< 0.01 µM	< 0.01 µM	–	–	higher inhibition	–	–	0.0617 µM	0.0895 µM	CCN1CC2(C1)CN(c1ccc(Nc3ncc(Cl)c(Nc4ccccc4P(C)(C)=O)n3)cc1C)C2 [Comparative compound A, (2-((5-chloro-2-((4-(6-ethyl-2,6-diazaspiro[3.3]heptan-2-yl)-3-methylphenyl)amino)pyrimidin-4-yl)amino)phenyl)dimethylphosphine oxide, reference compound]	relatively low inhibition
< 0.01 µM	< 0.01 µM	< 0.01 µM	0.01 to 0.05 µM	0.01 to 0.05 µM	< 0.01 µM	< 0.01 µM	–	–	–	–	–	C=CC(=O)Nc1cc(Nc2ncc(Cl)c(Nc3ccccc3P(C)(C)=O)n2)ccc1N(C)CCN1CCCC1 [Compound 18, N-(5-((5-chloro-4-((2-(dimethylphosphoryl)phenyl)amino)pyrimidin-2-yl)amino)-2-(methyl(2-(pyrrolidin-1-yl)ethyl)amino)phenyl)acrylamide]	–
< 0.01 µM	< 0.01 µM	< 0.01 µM	0.01 to 0.05 µM	0.01 to 0.05 µM	< 0.01 µM	< 0.01 µM	–	–	–	–	–	C=CC(=O)Nc1cc(Nc2ncc(Cl)c(Nc3ccccc3P(C)(C)=O)n2)ccc1N(C)CCN(C)C [Compound 15, N-(5-((5-chloro-4-((2-(dimethylphosphoryl)phenyl)amino)pyrimidin-2-yl)amino)-2-((2-(dimethylamino)ethyl)(methyl)amino)phenyl)acrylamide]	–
–	–	–	–	–	–	–	higher inhibition	0.0129 µM	0.0057 µM	0.0836 µM	–	CCc1cc(Nc2ncc(Br)c(Nc3ccc4nccnc4c3P(C)(C)=O)n2)c(OC)cc1N1CCC(N2CCN(C)CC2)CC1 [Comparative compound D, (6-((5-bromo-2-((5-ethyl-2-methoxy-4-(4-(4-methylpiperazin-1-yl)piperidin-1-yl)phenyl)amino)pyrimidin-4-yl)amino)quinoxalin-5-yl)dimethylphosphine oxide, reference compound]	relatively low inhibition
< 0.01 µM	< 0.01 µM	< 0.01 µM	< 0.01 µM	< 0.01 µM	< 0.01 µM	< 0.01 µM	–	–	–	–	–	C=CC(=O)Nc1cc(Nc2ncc(Cl)c(Nc3ccccc3P(C)(C)=O)n2)ccc1N1CCC2(CC1)CC(N(C)C)C2 [Compound 36, N-(5-((5-chloro-4-((2-(dimethylphosphoryl)phenyl)amino)pyrimidin-2-yl)amino)-2-(2-(dimethylamino)-7-azaspiro[3.5]nonan-7-yl)phenyl)acrylamide]	–
< 0.01 µM	< 0.01 µM	< 0.01 µM	0.01 to 0.05 µM	0.01 to 0.05 µM	0.01 to 0.05 µM	0.01 to 0.05 µM	–	–	–	–	–	C=CC(=O)Nc1cc(Nc2ncc(Cl)c(Nc3ccccc3P(C)(C)=O)n2)ccc1N1CCN2CCC[C@H]2C1 [Compound 17, (S)—N-(5-((5-chloro-4-((2-(dimethylphosphoryl)phenyl)amino)pyrimidin-2-yl)amino)-2-(hexahydropyrrolo[1,2-a]pyrazin-2(1H)-yl)phenyl)acrylamide]	–
< 0.01 µM	0.01 to 0.1 µM	< 0.01 µM	< 0.01 µM	< 0.01 µM	< 0.01 µM	< 0.01 µM	–	–	–	–	–	C=CC(=O)Nc1cc(Nc2ncc(Cl)c(Nc3ccccc3P(C)(C)=O)n2)ccc1N1CCC2(CCC(N(C)C)CC2)CC1 [Compound 1, N-(5-((5-chloro-4-((2-(dimethylphosphoryl)phenyl)amino)pyrimidin-2-yl)amino)-2-(9-(dimethylamino)-3-azaspiro[5.5]undecan-3-yl)phenyl)acrylamide]	–
< 0.01 µM	–	–	< 0.01 µM	< 0.01 µM	< 0.01 µM	0.01 to 0.05 µM	–	–	–	–	–	C=CC(=O)Nc1cc(Nc2ncc(Cl)c(Nc3ccc4nccnc4c3P(C)(C)=O)n2)ccc1N1CCC2(CC1)CC(N(C)C)C2 [Compound 10, N-(5-((5-chloro-4-((5-(dimethylphosphoryl)quinoxalin-6-yl)amino)pyrimidin-2-yl)amino)-2-(2-(dimethylamino)-7-azaspiro[3.5]nonan-7-yl)phenyl)acrylamide]	–
